Test results: patent publication US11753407B2, “Compounds for treating spinal muscular atrophy” (PTC Therapeutics, Inc., priority 2012, dated 2023)

Tests used:
[1] = test system: SMN2 minigene mRNA (SMN2-A minigene) in HEK293H cells; experiment: SMN2 minigene mRNA splicing RT-qPCR assay in cultured cells; format: cell-based, human; conditions: Homo sapiens, HEK293-H; concentration increasing full length SMN2 mRNA 1.5-fold relative to vehicle-treated cells; HEK293H cells with SMN2-A minigene, 24 hours, 7-point concentration data; read-out: EC1.5x for production of full length SMN2 mRNA
Summary of the method: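 EC1.5× values derive from a 24 h treatment of SMN2-A minigene HEK293H cells and GAPDH-normalized RT-qPCR of exon 7-included minigene mRNA relative to vehicle-treated cells.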

[2] = test system: Smn protein in SMA patient fibroblast cells (GM03813); experiment: Smn protein assay in cultured cells (SMN HTRF); format: cell-based, human; conditions: SMA patient fibroblast cells, 48 hours; for maximum fold (Fold) increase of Smn protein: 7-point concentration data, fold relative to vehicle control; for EC1.5x for Smn protein expression: 7-point concentration curve, SMN HTRF, concentration producing 1.5 times Smn protein vs DMSO vehicle control
Summary of the method: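 Cells were cultured 72 h, seeded at 5,000/well and dosed with seven concentrations (3.16-fold apart) for 48 h. HTRF on lysates, read at 665 and 620 nm, gave blank-corrected ΔF values relative to DMSO. Potency is reported as EC1.5×, efficacy as maximal fold Smn increase.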

Structure (SMILES)	EC (1.5-fold increase) [1] [µM]	maximum fold (Fold) increase of Smn protein [2]	melting point [°C]	EC1.5x for Smn protein expression [2]
COc1ccc(-c2cc(=O)n3cc(N4CCNCC4)ccc3n2)cc1 [Cpd 1, 2-(4-methoxyphenyl)-7-(piperazin-1-yl)-4H-pyrido[1,2-a]pyrimidin-4-one]	0.3 to 1	** (a fold increase between >1.2 and ≤1.35 is indicated by two stars (**))	182 to 184	
Cc1ccc2nc(-c3cc(=O)n4cc(N5CCNCC5)ccc4n3)cn2c1 [Cpd 29, 2-(6-methylimidazo[1,2-a]pyridin-2-yl)-7-(piperazin-1-yl)-4H-pyrido[1,2-a]pyrimidin-4-one]	3 to 30	*** (a fold increase between >1.35 and ≤1.5 is indicated by three stars (***))	193 to 198	
COc1ccc(-c2cnc3cc(N4CCNCC4)ccn3c2=O)cc1OC [Cpd 52, 3-(3,4-dimethoxyphenyl)-8-(piperazin-1-yl)-4H-pyrido[1,2-a]pyrimidin-4-one]	3 to 30	* (A maximum fold increase of ≤1.2 is indicated by one star (*))	175 to 179	
COc1ccc(-c2cc(=O)n3cc(N4CCNCC4)cc(OC)c3n2)cc1OC [Cpd 70, 2-(3,4-dimethoxyphenyl)-9-methoxy-7-(piperazin-1-yl)-4H-pyrido[1,2-a]pyrimidin-4-one]	1 to 3	* (A maximum fold increase of ≤1.2 is indicated by one star (*))	185 to 187	
COc1ccc(-c2cc(=O)n3cc(N4CCNCC4)ccc3n2)cc1F [Cpd 72, 2-(3-fluoro-4-methoxyphenyl)-7-(piperazin-1-yl)-4H-pyrido[1,2-a]pyrimidin-4-one]	< 0.1	*** (a fold increase between >1.35 and ≤1.5 is indicated by three stars (***))	191 to 195	*** (an EC1.5× between >0.3 μM and ≤1 μM is indicated by three stars (***))
Cc1cn2cc(-c3cc(=O)n4cc(N5CCNCC5)ccc4n3)nc2cn1 [Cpd 74, 2-(6-methylimidazo[1,2-a]pyrazin-2-yl)-7-(piperazin-1-yl)-4H-pyrido[1,2-a]pyrimidin-4-one]	< 0.1	***** (a fold increase >1.65 is indicated by five stars (*****))	221 to 225	*** (an EC1.5× between >0.3 μM and ≤1 μM is indicated by three stars (***))
COc1ccc(-c2cc(=O)n3cc(N4CCNCC4)ccc3n2)cc1OC(F)(F)F [Cpd 81, 2-[4-methoxy-3-(trifluoromethoxy)phenyl]-7-(piperazin-1-yl)-4H-pyrido[1,2-a]pyrimidin-4-one]	0.3 to 1	** (a fold increase between >1.2 and ≤1.35 is indicated by two stars (**))	158 to 162	
O=c1cc(-c2ccc(O)c(OC(F)(F)F)c2)nc2ccc(N3CCNCC3)cn12 [Cpd 82, 2-[4-hydroxy-3-(trifluoromethoxy)phenyl]-7-(piperazin-1-yl)-4H-pyrido[1,2-a]pyrimidin-4-one]	1 to 3	***** (a fold increase >1.65 is indicated by five stars (*****))	245 to 248	** (an EC1.5× between >1 μM and ≤3 μM is indicated by two stars (**))
COc1ccc(-c2cc(=O)n3cc(N4CCNCC4)ccc3c2C#N)cc1OC [Cpd 85, 2-(3,4-dimethoxyphenyl)-4-oxo-7-(piperazin-1-yl)-4H-quinolizine-1-carbonitrile]	1 to 3	*** (a fold increase between >1.35 and ≤1.5 is indicated by three stars (***))	199 to 202	* (An EC1.5× for Smn protein expression between >3 μM and ≤10 μM is indicated by one star (*))
COc1ccc(-c2cc(=O)n3cc(N4CCN[C@@H](C)C4)ccc3c2)cc1OC [Cpd 91, 2-(3,4-dimethoxyphenyl)-7-[(3S)-3-methylpiperazin-1-yl]-4H-quinolizin-4-one]	1 to 3	** (a fold increase between >1.2 and ≤1.35 is indicated by two stars (**))	243 to 245	
O=c1cc(-c2cncc(F)c2)nc2ccc(N3CCNCC3)cn12 [Cpd 92, 2-(5-fluoropyridin-3-yl)-7-(piperazin-1-yl)-4H-pyrido[1,2-a]pyrimidin-4-one]	1 to 3	** (a fold increase between >1.2 and ≤1.35 is indicated by two stars (**))	201 to 208	
O=c1cc(-c2ccc3[nH]ccc3c2)nc2ccc(N3CCNCC3)cn12 [Cpd 98, 2-(1H-indol-5-yl)-7-(piperazin-1-yl)-4H-pyrido[1,2-a]pyrimidin-4-one]	1 to 3	*** (a fold increase between >1.35 and ≤1.5 is indicated by three stars (***))	266 to 272	
COc1ccc(-c2cc(=O)n3cc(N4CCNCC4)ccc3c2)cc1OC [Cpd 106, 2-(3,4-dimethoxyphenyl)-7-(piperazin-1-yl)-4H-quinolizin-4-one]	0.3 to 1	**** (a fold increase between >1.5 and ≤1.65 is indicated by four stars (****))	170 to 172	** (an EC1.5× between >1 μM and ≤3 μM is indicated by two stars (**))
O=c1cc(-c2ccn3ccnc3c2)nc2ccc(N3CCNCC3)cn12 [Cpd 107, 2-(imidazo[1,2-a]pyridin-7-yl)-7-(piperazin-1-yl)-4H-pyrido[1,2-a]pyrimidin-4-one]	0.3 to 1	** (a fold increase between >1.2 and ≤1.35 is indicated by two stars (**))	258 to 270	
Cc1cn2cc(-c3cc(=O)n4cc(N5CCNCC5)ccc4n3)ccc2n1 [Cpd 109, 2-(2-methylimidazo[1,2-a]pyridin-6-yl)-7-(piperazin-1-yl)-4H-pyrido[1,2-a]pyrimidin-4-one]	< 0.1	**** (a fold increase between >1.5 and ≤1.65 is indicated by four stars (****))	259 to 267	**** (an EC1.5x≤0.3 μM is indicated by four stars (****))
O=c1cc(-c2cnc3[nH]ccc3c2)nc2ccc(N3CCNCC3)cn12 [Cpd 128, 7-(piperazin-1-yl)-2-(1H-pyrrolo[2,3-b]pyridin-5-yl)-4H-pyrido[1,2-a]pyrimidin-4-one]	0.3 to 1	*** (a fold increase between >1.35 and ≤1.5 is indicated by three stars (***))	252 to 255	
COc1ccc(-c2cc(=O)n3cc(C4=CCNCC4)ccc3n2)cc1OC [Cpd 143, 2-(3,4-dimethoxyphenyl)-7-(1,2,3,6-tetrahydropyridin-4-yl)-4H-pyrido[1,2-a]pyrimidin-4-one]	< 0.1	***** (a fold increase >1.65 is indicated by five stars (*****))	196 to 198	**** (an EC1.5x≤0.3 μM is indicated by four stars (****))
COc1ccc(-c2cc(=O)n3cc(C4CCNCC4)ccc3n2)cc1OC [Cpd 144, 2-(3,4-dimethoxyphenyl)-7-(piperidin-4-yl)-4H-pyrido[1,2-a]pyrimidin-4-one]	< 0.1	**** (a fold increase between >1.5 and ≤1.65 is indicated by four stars (****))	214 to 217	**** (an EC1.5x≤0.3 μM is indicated by four stars (****))
CCOc1ccc(-c2cc(=O)n3cc(N4CCNCC4)ccc3n2)cc1F [Cpd 153, 2-(4-ethoxy-3-fluorophenyl)-7-(piperazin-1-yl)-4H-pyrido[1,2-a]pyrimidin-4-one]	0.3 to 1	** (a fold increase between >1.2 and ≤1.35 is indicated by two stars (**))	180 to 186	
Cc1csc(-c2cc(=O)n3cc(N4CCNCC4)ccc3n2)n1 [Cpd 163, 2-(4-methyl-1,3-thiazol-2-yl)-7-(piperazin-1-yl)-4H-pyrido[1,2-a]pyrimidin-4-one]	1 to 3	*** (a fold increase between >1.35 and ≤1.5 is indicated by three stars (***))	142 to 147	
COc1ccc(-c2cc(=O)n3cc(C4CCN(C)CC4)ccc3n2)cc1OC [Cpd 164, 2-(3,4-dimethoxyphenyl)-7-(1-methylpiperidin-4-yl)-4H-pyrido[1,2-a]pyrimidin-4-one]	0.3 to 1	**** (a fold increase between >1.5 and ≤1.65 is indicated by four stars (****))	181 to 183	** (an EC1.5× between >1 μM and ≤3 μM is indicated by two stars (**))
Cc1nc2ccc(-c3cc(=O)n4cc(N5CCN(C)CC5)ccc4n3)cc2o1 [Cpd 171, 2-(2-methyl-1,3-benzoxazol-6-yl)-7-(4-methylpiperazin-1-yl)-4H-pyrido[1,2-a]pyrimidin-4-one]	< 0.1	***** (a fold increase >1.65 is indicated by five stars (*****))	178 to 183	**** (an EC1.5x≤0.3 μM is indicated by four stars (****))
